For experiment [1], the system named is Human rhinovirus sp. Briefly: Antiviral activity against rhinoviral-1B serotype in a plaque inhibition assay using monolayers of M-HeLa cells. It is filed as functional, organism-based.
Experiment [2] relates to Human rhinovirus sp. Briefly: Antiviral activity against rhinoviral 29 serotype in a plaque inhibition assay using monolayers of M-HeLa cells. It is filed as functional, organism-based.
Experiment [3] concerns Human rhinovirus sp. Put plainly: Antiviral activity against rhinoviral 8 serotype in a plaque inhibition assay using monolayers of M-HeLa cells. It is filed as functional, organism-based.
For experiment [4], the system named is Human rhinovirus sp. Briefly: Antiviral activity against rhinoviral 2 serotype in a plaque inhibition assay using monolayers of M-HeLa cells. In kind it is functional, organism-based.
For experiment [5], the system named is Human rhinovirus sp. Put plainly: Antiviral activity against rhinoviral 5 serotype in a plaque inhibition assay using monolayers of M-HeLa cells. In kind it is functional, organism-based.
For experiment [6], the system named is Human rhinovirus sp. Put plainly: Antiviral activity against rhinoviral-18 serotype in a plaque inhibition assay using monolayers of M-HeLa cells. It is filed as functional, organism-based.
In experiment [7] the test system is Human rhinovirus sp. Put plainly: Antiviral activity against rhinoviral-1A serotype in a plaque inhibition assay using monolayers of M-HeLa cells. It is filed as functional, organism-based.
Experiment [8] relates to Human rhinovirus sp. Put plainly: Antiviral activity against rhinoviral 30 serotype in a plaque inhibition assay using monolayers of M-HeLa cells. In kind it is functional, organism-based.
The subject of experiment [9] is Human rhinovirus sp. Put plainly: Percent inhibitory activity at 8 uM against rhinoviral 3 serotype in a plaque inhibition assay using monolayers of M-HeLa cells. In kind it is functional.
Experiment [10] has as its system Human rhinovirus sp. Briefly: Antiviral activity against rhinoviral 14 serotype in a plaque inhibition assay using monolayers of M-HeLa cells. It is filed as functional, organism-based.
The subject of experiment [11] is Human rhinovirus sp. Briefly: Antiviral activity against rhinoviral 9 serotype in a plaque inhibition assay using monolayers of M-HeLa cells. In kind it is functional, organism-based.
For experiment [12], the system named is Human rhinovirus sp. Put plainly: Antiviral activity against rhinoviral 31 serotype in a plaque inhibition assay using monolayers of M-HeLa cells. In kind it is functional, organism-based.
The subject of experiment [13] is Human rhinovirus sp. Briefly: Antiviral activity against rhinoviral 12 serotype in a plaque inhibition assay using monolayers of M-HeLa cells. In kind it is functional, organism-based.
In experiment [14] the test system is Human rhinovirus sp. Briefly: Antiviral activity against rhinoviral 16 serotype in a plaque inhibition assay using monolayers of M-HeLa cells. It is filed as functional, organism-based.
For experiment [15], the system named is Human rhinovirus sp. Briefly: Percent inhibitory activity at 8 uM against rhinoviral 21 serotype in a plaque inhibition assay using monolayers of M-HeLa cells. It is filed as functional.
The test system of experiment [16] is Human rhinovirus sp. Put plainly: Antiviral activity against rhinoviral 15 serotype in a plaque inhibition assay using monolayers of M-HeLa cells. In kind it is functional, organism-based.
Experiment [17] has as its system Human rhinovirus sp. Put plainly: Percent inhibitory activity at 8 uM against rhinoviral 13 serotype in a plaque inhibition assay using monolayers of M-HeLa cells. It is filed as functional.
Experiment [18] concerns Human rhinovirus sp. Briefly: Antiviral activity against rhinoviral-19 serotype in a plaque inhibition assay using monolayers of M-HeLa cells. In kind it is functional, organism-based.
In experiment [19] the test system is Human rhinovirus sp. Briefly: Antiviral activity against rhinoviral 4 serotype in a plaque inhibition assay using monolayers of M-HeLa cells. It is filed as functional, organism-based.
The test system of experiment [20] is Human rhinovirus sp. Put plainly: Percent inhibitory activity at 8 uM against rhinoviral 15 serotype in a plaque inhibition assay using monolayers of M-HeLa cells. In kind it is functional.
Experiment [21] deals with Human rhinovirus sp. Briefly: Percent inhibitory activity at 8 uM against rhinoviral 29 serotype in a plaque inhibition assay using monolayers of M-HeLa cells. It is filed as functional.
In experiment [22] the test system is Human rhinovirus sp. Put plainly: Percent inhibitory activity at 8 uM against rhinoviral 30 serotype in a plaque inhibition assay using monolayers of M-HeLa cells. In kind it is functional.
In experiment [23] the test system is Human rhinovirus sp. Briefly: Percent inhibitory activity at 8 uM against rhinoviral 19s erotype in a plaque inhibition assay using monolayers of M-HeLa cells. In kind it is functional.
For experiment [24], the system named is Human rhinovirus sp. Briefly: Percent inhibitory activity at 8 uM against rhinoviral 31 serotype in a plaque inhibition assay using monolayers of M-HeLa cells. It is filed as functional.
Experiment [25] concerns Human rhinovirus sp. Put plainly: Percent inhibitory activity at 8 uM against rhinoviral 5 serotype in a plaque inhibition assay using monolayers of M-HeLa cells. In kind it is functional.
Experiment [26] has as its system Human rhinovirus sp. Put plainly: Antiviral activity against rhinoviral 3 serotype in a plaque inhibition assay using monolayers of M-HeLa cells. In kind it is functional, organism-based.

Structures are written as SMILES.

Turning to `CN(C)c1nc(C(F)(F)F)nc2c1ncn2Cc1ccc(Cl)c([N+](=O)[O-])c1`, inhibition in the experiment on Human rhinovirus sp. [1] was half-maximal at 2.1 µM (IC50).
As to `CN(C)c1nc(C(F)(F)F)nc2c1ncn2Cc1ccc(C#N)cc1`, the IC50 (in general, the point on the concentration scale where inhibition reaches its midpoint) in the experiment with Human rhinovirus sp. [1] is 0.3 µM.
In the experiment with Human rhinovirus sp. [1], `CN(C)c1nc(C(F)(F)F)nc2c1ncn2Cc1ccccc1N` registered an IC50 of 1.7 µM.
`COc1cc(Cn2cnc3c(N(C)C)nc(C(F)(F)F)nc32)ccc1C` registered an IC50 in the experiment on Human rhinovirus sp. [1] greater than 1 µM.
`COc1ccccc1Cn1cnc2c(N(C)C)nc(C(F)(F)F)nc21` had an IC50 in the experiment with Human rhinovirus sp. [1] of 5.6 µM.
Consider `CN(C)c1nc(C(F)(F)F)nc2c1ncn2Cc1ccc(Cl)c(Cl)c1`, for which the IC50 with Human rhinovirus sp. [2] is 4.8 µM; with Human rhinovirus sp. [3], 11 µM; with Human rhinovirus sp. [4], 6.1 µM; in the experiment with Human rhinovirus sp. [5], greater than 8 µM; in the experiment on Human rhinovirus sp. [6], 8.1 µM; in the experiment on Human rhinovirus sp. [7] it was 0.73 µM. Besides, the IC50 turned out to be 7.5 µM in the experiment on Human rhinovirus sp. [8]; 0.12 µM with Human rhinovirus sp. [1]; 10 µM in the experiment on Human rhinovirus sp. [10]; 0.71 µM in the experiment on Human rhinovirus sp. [11]; 13 µM with Human rhinovirus sp. [12]; 5.1 µM with Human rhinovirus sp. [13]. In addition, the IC50 is 0.74 µM in the experiment with Human rhinovirus sp. [14], 3.7 µM with Human rhinovirus sp. [16], 5.4 µM with Human rhinovirus sp. [18] and 8.4 µM with Human rhinovirus sp. [19]. Besides, the Inhibition (in general, the change of the read-out against control, counted positive when it falls) with Human rhinovirus sp. [9] stood at 40%; with Human rhinovirus sp. [15] it was 29%; with Human rhinovirus sp. [17], 23%.
As for `CN(C)c1nc(C(F)(F)F)nc2c1ncn2Cc1ccccc1F`, it took 0.15 µM to reach half-maximal inhibition in the experiment on Human rhinovirus sp. [1] (IC50).
With `Cc1cc(C)cc(Cn2cnc3c(N(C)C)nc(C(F)(F)F)nc32)c1`, the IC50 in the experiment on Human rhinovirus sp. [1] was greater than 1.3 µM.
Turning to `Cc1ccc(Cn2cnc3c(N(C)C)nc(C(F)(F)F)nc32)c(C)c1`, the Inhibition in the experiment with Human rhinovirus sp. [20] was determined as 30%; with Human rhinovirus sp. [21], 20%; with Human rhinovirus sp. [9] it was 40%; in the experiment on Human rhinovirus sp. [22], 33%; in the experiment on Human rhinovirus sp. [15] it was 16%; in the experiment on Human rhinovirus sp. [23], 36%. Further, the Inhibition with Human rhinovirus sp. [17] is 13%. The IC50 in the experiment on Human rhinovirus sp. [3] was greater than 8 µM; with Human rhinovirus sp. [4], 2.8 µM; in the experiment on Human rhinovirus sp. [5] it was greater than 8 µM; in the experiment with Human rhinovirus sp. [6] it was 6.1 µM; with Human rhinovirus sp. [7], 0.83 µM; with Human rhinovirus sp. [1], 0.11 µM. Moreover, the IC50 amounted to 11 µM in the experiment on Human rhinovirus sp. [10]; 0.95 µM with Human rhinovirus sp. [11]; 13 µM with Human rhinovirus sp. [12]; 7.2 µM in the experiment with Human rhinovirus sp. [13]; 1.2 µM in the experiment on Human rhinovirus sp. [14]; 7.6 µM with Human rhinovirus sp. [19].
For the compound `CN(C)c1nc(C(F)(F)F)nc2c1ncn2Cc1ccc(CN)cc1`, in the experiment with Human rhinovirus sp. [1], the half-inhibitory concentration (IC50) is 0.2 µM.
Compound `CN(C)c1nc(C(F)(F)F)nc2c1ncn2Cc1cccc(Br)c1` had an IC50 in the experiment on Human rhinovirus sp. [1] of 0.06 µM.
Take `CN(C)c1nc(C(F)(F)F)nc2c1ncn2Cc1cccc(NC=O)c1`: 0.74 µM corresponded to half-maximal inhibition in the experiment with Human rhinovirus sp. [1] (IC50).
On the same count and under the same terms, with `CCCCc1ccc(Cn2cnc3c(N(C)C)nc(C(F)(F)F)nc32)cc1` the figure was 0.78 µM; with `CN(C)c1cc(Cl)ccc1Cn1cnc2c(N(C)C)nc(C(F)(F)F)nc21`, 180 µM.
The same measure, in the same setting: the same measure for `CN(C)c1nc(C(F)(F)F)nc2c1ncn2Cc1ccc(Cl)cc1N`: 0.47 µM.
As for `CN(C)c1nc(C(F)(F)F)nc2c1ncn2Cc1ccc(OCc2ccccc2)cc1`, inhibition in the experiment on Human rhinovirus sp. [1] was half-maximal at 4.4 µM (IC50).
In the experiment on Human rhinovirus sp. [1], `CN(C)c1nc(C(F)(F)F)nc2c1ncn2Cc1ccc(-c2ccccc2)cc1` gave an IC50 of 14 µM.
`CN(C)c1cc(Cn2cnc3c(N(C)C)nc(C(F)(F)F)nc32)ccc1Cl`: the IC50 in the experiment with Human rhinovirus sp. [1] was greater than 0.2 µM.
The same measure, in the same setting: with `COc1cc(Cn2cnc3c(N(C)C)nc(C(F)(F)F)nc32)ccc1Cl` the figure was 0.68 µM.
Take `CN(C)c1nc(C(F)(F)F)nc2c1ncn2Cc1cccc(O)c1`: it took 0.95 µM to reach half-maximal inhibition with Human rhinovirus sp. [1] (IC50).
Consider `CN(C)c1nc(C(F)(F)F)nc2c1ncn2Cc1ccccc1Cl`, for which the IC50 was determined as 4.2 µM in the experiment with Human rhinovirus sp. [2]; 7.9 µM in the experiment with Human rhinovirus sp. [3]; 9.4 µM in the experiment with Human rhinovirus sp. [4]; 13 µM in the experiment with Human rhinovirus sp. [6]; 4 µM with Human rhinovirus sp. [7]; 0.2 µM with Human rhinovirus sp. [1]. The IC50 turned out to be 8 µM in the experiment with Human rhinovirus sp. [10]; 1.9 µM with Human rhinovirus sp. [11]; 9 µM in the experiment on Human rhinovirus sp. [26]; 8.1 µM with Human rhinovirus sp. [13]; 4.3 µM in the experiment on Human rhinovirus sp. [14]; 10 µM in the experiment on Human rhinovirus sp. [19]. For the same compound, the Inhibition was 38% with Human rhinovirus sp. [24]; 30% with Human rhinovirus sp. [20]; 24% with Human rhinovirus sp. [25]; 31% with Human rhinovirus sp. [22]; 38% in the experiment with Human rhinovirus sp. [15]; 27% in the experiment on Human rhinovirus sp. [23]. For the same compound, the Inhibition with Human rhinovirus sp. [17] was 24%.

Values taken from ChEMBL document CHEMBL1124634, “Synthesis and antirhinovirus activity of 6-(dimethylamino)-2-(trifluoromethyl)-9-(substituted benzyl)-9H-purines” (J Med Chem, 1989).
